In patent US20260364184A1, “COMPOUND BASED ON OXOISOINDOLINYL-SUBSTITUTED TETRAHYDROPYRIMIDINE-DIONE AND USE THEREOF” (GLUETACS THERAPEUTICS (SHANGHAI) CO., LTD., priority 2023, published 2026):
Read-outs that look alike come from different tables or passages of the source.

Test system: Human myeloid monocytic leukemia cell line (MV-4-11)
Experiment: Inhibition of MV-4-11 cell proliferation (CellTiter luminescent viability)
Assay type: cell-based
Conditions: Homo sapiens, MV4-11; for inhibition at 0.01 µM: read-out: Inhibition Rate at 10 nM (%); for inhibition at 0.5 µM: read-out: Inhibition Rate at 500 nM (%)
Method: The tumor cells used herein were cultured in a cell culture medium listed in table 3 at 37 °C in an incubator with 5% CO2. Prior to experimentation, all cell lines used were correctly identified by STR profiling, and tested negative for mycoplasma contamination using a mycoplasma detection kit through routine screenings.
The IC50 values of the compounds of the present disclosure (including the compounds in Table 1, Table 2, and Examples 1-468) were determined using the CellTiter-Meiluncell Luminescent Cell Viability Assay Kit from Dalian Meilun Biotech Co., Ltd. The detailed procedure is as follows: Tumor cells were seeded in 96-well cell culture plates at the densities specified in Table 4. On the following day, the test compounds of the present disclosure were subjected to serial dilution. The dilution can be performed according to one of the following two methods: • (1) The first dilution method: The test compounds of the present disclosure (including the compounds in Table 1, Table 2, and Examples 1-468) were subjected to 5-fold serial dilutions starting from a highest concentration of 2000 μM, resulting in a total of 9 concentrations from high to low (2000, 400, 80, 16, 3.2, 0.64, 0.128, 0.0256, 0.00512 μM). Subsequently, 0.5 μL of the test compound dilution was transferred into the 96-well plate containing the cells, with each well containing 100 μL of cell culture medium. […] Into the 96-well plate, the diluted test compounds and corresponding detection reagents were added, resulting in final test compound concentrations of 500 nM and 10 nM, respectively. The experimental procedure is described below using the diluted 2 μM test compound as an example.
0.5 μL of the aforementioned diluted compound of the present disclosure (including the compounds in Table 1, Table 2, and Examples 1-468) was added to the seeded cells in 100 μL of medium, yielding a final test compound concentration of 10 nM. After the cells were treated with the compounds of the present disclosure for a specified period, the cell viability assay reagent was added to the culture medium according to the kit's instructions to determine cell viability. […] All controls were treated using the same procedure as the compounds of the present disclosure. The growth inhibition curves for the compounds of the present disclosure were plotted using Prism GraphPad software, and the IC50 values were calculated therefrom.

[1] = Table IL2, BCR-ABL inhibitor-based, MV-4-11, 10 nM, 96 hours
[2] = Table IL2, BCR-ABL inhibitor-based, MV-4-11, 500 nM, 96 hours
[3] = Table IG2, FAK inhibitor-based, MV-4-11, 10 nM, 96 hours
[4] = Table IG2, FAK inhibitor-based, MV-4-11, 500 nM, 96 hours
[5] = Table IB2, ALK inhibitor-based, MV-4-11, 10 nM, 96 hours
[6] = Table IB2, ALK inhibitor-based, MV-4-11, 500 nM, 96 hours

Which inhibition at 0.01 µM [1] does the source give for `Cc1ccc(C(=O)Nc2ccc(N3CCC(N(C)Cc4ccc5c(c4)C(=O)N(N4CCC(=O)NC4=O)C5=O)CC3)c(C(F)(F)F)c2)cc1C#Cc1cnc2cccnn12` [GT-08221, N-(4-(4-(((2-(2,4-dioxotetrahydropyrimidin-1(2H)-yl)-1,3-dioxoisoindolin-5-yl)methyl)(methyl)amino)piperidin-1-yl)-3-(trifluoromethyl)phenyl)-3-(imidazo[1,2-b]pyridazin-3-ylethynyl)-4-methylbenzamide] here?
The inhibition at 0.01 µM was -5 to 0%.

And the inhibition at 0.5 µM [2]?
The inhibition at 0.5 µM was 50 to 60%.

What does the source list for `CN(Cc1ccc2c(c1)CN(N1CCC(=O)NC1=O)C2=O)C1CCN(c2ccc(Nc3ncc(C(F)(F)F)c(NCc4cccc(N(C)S(C)(=O)=O)c4)n3)cc2)CC1` [GT-08142, N-(3-(((2-((4-(4-(((2-(2,4-dioxotetrahydropyrimidin-1(2H)-yl)-1-oxoisoindolin-5-yl)methyl)(methyl)amino)piperidin-1-yl)phenyl)amino)-5-(trifluoromethyl)pyrimidin-4-yl)amino)methyl)phenyl)-N-methylmethanesulfonamide]?
inhibition at 0.01 µM [3]: 40 to 50%; inhibition at 0.5 µM [4]: 80 to 100%

How did the inhibition at 0.01 µM (MV-4-11, 10 nM) turn out when `C[C@@H]1CNC(=O)c2cc3ccc(C(=O)Nc4cnn(Cc5ccc(N6CCN(CC7CCN(c8ccc9c(c8)C(=O)N(N8CCC(=O)NC8=O)C9=O)CC7)CC6)cc5)c4)nc3n21` [GT-08255, (R)—N-(1-(4-(4-((1-(2-(2,4-dioxotetrahydropyrimidin-1(2H)-yl)-1,3-dioxoisoindolin-5-yl)piperidin-4-yl)methyl)piperazin-1-yl)benzyl)-1H-pyrazol-4-yl)-9-methyl-6-oxo-6,7,8,9-tetrahydropyrido[3′,2′: 4,5]pyrrolo[1,2-a]pyrazine-2-carboxamide] was run?
The inhibition at 0.01 µM was -15 to -5%.

What about the inhibition at 0.5 µM (MV-4-11, 500 nM) of the same molecule?
The inhibition at 0.5 µM was 50 to 70%.

How did the inhibition at 0.01 µM (Table IA3, IRAK4 inhibitor-based, MV-4-11, 10 nM, 96 hours) turn out when `CC(C)(O)c1cc2nn(C3CCN(Cc4ccc5c(c4)CN(N4CCC(=O)NC4=O)C5=O)CC3)cc2cc1NC(=O)c1cccc(C(F)(F)F)n1` [GT-05746, N-(2-(1-((2-(2,4-dioxotetrahydropyrimidin-1(2H)-yl)-1-oxoisoindolin-5-yl)methyl)piperidin-4-yl)-6-(2-hydroxypropan-2-yl)-2H-indazol-5-yl)-6-(trifluoromethyl) picolinamide] was run?
The inhibition at 0.01 µM was 10 to 20%.

And the inhibition at 0.5 µM (Table IA3, IRAK4 inhibitor-based, MV-4-11, 500 nM, 96 hours)?
Its inhibition at 0.5 µM is 60 to 80%.

`Cc1ccc(C(=O)Nc2ccc(CN3CCN(Cc4ccc5c(c4)C(=O)N(N4CCC(=O)NC4=O)C5=O)CC3)c(C(F)(F)F)c2)cc1C#Cc1cnc2cccnn12` [GT-08217, N-(4-((4-((2-(2,4-dioxotetrahydropyrimidin-1(2H)-yl)-1,3-dioxoisoindolin-5-yl)methyl)piperazin-1-yl)methyl)-3-(trifluoromethyl)phenyl)-3-(imidazo[1,2-b]pyridazin-3-ylethynyl)-4-methylbenzamide] was tested. Which inhibition at 0.01 µM [1] did it give?
The inhibition at 0.01 µM was 10 to 15%.

And the inhibition at 0.5 µM [2]?
Its inhibition at 0.5 µM is 80 to 100%.

How did the inhibition at 0.01 µM (Table IJ2, Tau inhibitor-based, MV-4-11, 10 nM, 96 hours) turn out when `Cn1c2ccncc2c2ccc(-c3cnc(N4CCN(CC5CCN(c6cccc7c6C(=O)N(N6CCC(=O)NC6=O)C7=O)CC5)CC4)c(C(F)(F)F)c3)cc21` [GT-08561, 2-(2,4-dioxotetrahydropyrimidin-1(2H)-yl)-4-(4-((4-(5-(5-methyl-5H-pyrido[4,3-b]indol-7-yl)-3-(trifluoromethyl)pyridin-2-yl)piperazin-1-yl)methyl)piperidin-1-yl)isoindoline-1,3-dione] was run?
Its inhibition at 0.01 µM is 0 to 5%.

And the inhibition at 0.5 µM (Table IJ2, Tau inhibitor-based, MV-4-11, 500 nM, 96 hours)?
Its inhibition at 0.5 µM is 50 to 60%.

For `COc1cc(N2CCC(N(C)CC3CCN(c4ccc5c(c4)C(=O)N(N4CCC(=O)NC4=O)C5=O)CC3)CC2)ccc1Nc1ncc(Cl)c(Nc2ccccc2P(C)(C)=O)n1` [GT-08253, 5-(4-(((1-(4-((5-chloro-4-((2-(dimethylphosphoryl)phenyl)amino)pyrimidin-2-yl)amino)-3-methoxyphenyl)piperidin-4-yl)(methyl)amino)methyl)piperidin-1-yl)-2-(2,4-dioxotetrahydropyrimidin-1(2H)-yl)isoindoline-1,3-dione], which inhibition at 0.01 µM [5] is on record?
The inhibition at 0.01 µM was 15 to 20%.

What about the inhibition at 0.5 µM [6] of the same molecule?
Its inhibition at 0.5 µM is 45 to 55%.

For `COc1cc(N2CCC(N3CCN(CC4CCN(c5ccc6c(c5)C(=O)N(N5CCC(=O)NC5=O)C6=O)CC4)CC3)CC2)ccc1Nc1ncc(Cl)c(Nc2ccccc2P(C)(C)=O)n1` [GT-08251, 5-(4-((4-(1-(4-((5-chloro-4-((2-(dimethylphosphoryl)phenyl)amino)pyrimidin-2-yl)amino)-3-methoxyphenyl)piperidin-4-yl)piperazin-1-yl)methyl)piperidin-1-yl)-2-(2,4-dioxotetrahydropyrimidin-1(2H)-yl)isoindoline-1,3-dione], which inhibition at 0.01 µM [5] is on record?
Its inhibition at 0.01 µM is 30 to 45%.

And the inhibition at 0.5 µM [6]?
The inhibition at 0.5 µM was 60 to 80%.

Which inhibition at 0.01 µM (MV-4-11, 10 nM) does the source give for `C[C@@H]1CNC(=O)c2cc3ccc(C(=O)Nc4cnn(Cc5ccc(N6CCN(CC7CCN(c8cccc9c8C(=O)N(N8CCC(=O)NC8=O)C9=O)CC7)CC6)cc5)c4)nc3n21` [GT-08256, (R)—N-(1-(4-(4-((1-(2-(2,4-dioxotetrahydropyrimidin-1(2H)-yl)-1,3-dioxoisoindolin-4-yl)piperidin-4-yl)methyl)piperazin-1-yl)benzyl)-1H-pyrazol-4-yl)-9-methyl-6-oxo-6,7,8,9-tetrahydropyrido[3′,2′: 4,5]pyrrolo[1,2-a]pyrazine-2-carboxamide] here?
The inhibition at 0.01 µM was 20 to 30%.

What about the inhibition at 0.5 µM (MV-4-11, 500 nM) of the same molecule?
Its inhibition at 0.5 µM is 80 to 100%.

Which inhibition at 0.01 µM [1] does the source give for `Cc1ccc(C(=O)Nc2ccc(CN3CCN(CC4CCN(c5cccc6c5C(=O)N(N5CCC(=O)NC5=O)C6=O)CC4)CC3)c(C(F)(F)F)c2)cc1C#Cc1cnc2cccnn12` [GT-08353, N-(4-((4-((1-(2-(2,4-dioxotetrahydropyrimidin-1(2H)-yl)-1,3-dioxoisoindolin-4-yl)piperidin-4-yl)methyl)piperazin-1-yl)methyl)-3-(trifluoromethyl)phenyl)-3-(imidazo[1,2-b]pyridazin-3-ylethynyl)-4-methylbenzamide] here?
The inhibition at 0.01 µM was 50 to 60%.

And the inhibition at 0.5 µM [2]?
Its inhibition at 0.5 µM is 80 to 100%.

`CN(c1nccnc1CNc1nc(Nc2ccc(N3CCN(Cc4ccc5c(c4)CN(N4CCC(=O)NC4=O)C5=O)CC3)cc2)ncc1C(F)(F)F)S(C)(=O)=O` [GT-07504, N-(3-(((2-((4-(4-((2-(2,4-dioxotetrahydropyrimidin-1(2H)-yl)-1-oxoisoindolin-5-yl)methyl)piperazin-1-yl)phenyl)amino)-5-(trifluoromethyl)pyrimidin-4-yl)amino)methyl)pyrazin-2-yl)-N-methylmethanesulfonamide] was tested. Which inhibition at 0.01 µM [3] did it give?
The inhibition at 0.01 µM was -5 to 0%.

And the inhibition at 0.5 µM [4]?
Its inhibition at 0.5 µM is 80 to 100%.

With `Cc1ccc(C(=O)Nc2ccc(N3CCN(Cc4ccc5c(c4)CN(N4CCC(=O)NC4=O)C5=O)CC3)c(C(F)(F)F)c2)cc1C#Cc1cnc2cccnn12` [GT-08218, N-(4-(4-((2-(2,4-dioxotetrahydropyrimidin-1(2H)-yl)-1-oxoisoindolin-5-yl)methyl)piperazin-1-yl)-3-(trifluoromethyl)phenyl)-3-(imidazo[1,2-b]pyridazin-3-ylethynyl)-4-methylbenzamide] as the molecule, how does the inhibition at 0.01 µM [1] read?
Its inhibition at 0.01 µM is 5 to 10%.

What about the inhibition at 0.5 µM [2] of the same molecule?
Its inhibition at 0.5 µM is 80 to 100%.

What does the source list for `CN(c1cccc(CNc2nc(Nc3ccc(N4CCC(N5CCN(Cc6ccc7c(c6)CN(N6CCC(=O)NC6=O)C7=O)CC5)CC4)cc3)ncc2C(F)(F)F)c1)S(C)(=O)=O` [GT-08144, N-(3-(((2-((4-(4-(4-((2-(2,4-dioxotetrahydropyrimidin-1(2H)-yl)-1-oxoisoindolin-5-yl)methyl)piperazin-1-yl)piperidin-1-yl)phenyl)amino)-5-(trifluoromethyl)pyrimidin-4-yl)amino)methyl)phenyl)-N-methylmethanesulfonamide]?
inhibition at 0.01 µM [3]: 30 to 40%; inhibition at 0.5 µM [4]: 80 to 100%
